From patent EP2845588A1, “PIN1 inhibitors for use in the prevention and/or treatment of theileriosis, and related applications” (Centre National de la Recherche Scientifique (CNRS), priority 2013, dated 2015)

Assays:
HepG2 cells [1] = experiment: Cell viability XTT assay, HepG2; assay type: cell-based, human; conditions: 72h
Description: (§1) All infected bovine cell lines used in this study were previously described: TBL3 cells were derived from in vitro infection of the spontaneous bovine-B lymphosarcoma cell line, BL3, with Hissar stock of T.annulata. The TpMD409 lymphocyte cell line are infected with T. parva. The culture conditions of these cell lines were previously described by Moreau et al., 1999. Cells were cultured in RPMI 1640 (Gibco-BRL, Paisley, UK), supplemented with 10% heat-inactivated Fetal calf serum, 4mM L-Glutamine, 25mM HEPES, 10µM β-mercaptoethanol and 100µg/ml penicillin/streptomycin in a humidified 5%CO2 atmosphere at 37°C. HepG2, NIH/3T3 and MEF cells lines were cultured in DMEM (Gibco-BRL, Paisley, UK), supplemented with 10% heat-inactivated Fetal calf serum, 4mM L-Glutamine, 25 mM HEPES, 10µM β-mercaptoethanol and 100µg/ml penicillin/streptomycin in a humidified 5% CO2 atmosphere at 37°C. Cell numbers, as judged by Trypan Blue exclusion test, were determined by counting cells using a Countess automated cell counter (Invitrogen, CA, USA). The anti-parasite drug Buparvaquone (BW720c) was used at 200ng/ml for 72 hours. BW720c has no effect on growth of uninfected cells.
1×10^4 cells were plated in 96-well plates in triplicate and Buparvaquone, Juglone or PiB was added. […]

[2] = tested on: TBL3 cells transiently expressing TaPIN Mutant A53P; experiment: Proliferation of TBL3 cells transiently expressing TaPIN Mutant A53P; assay type: cell-based, bovine; conditions: transient expression of TaPIN Mutant A53P
Description: as §1, with “cells. […]” for “cells.”

[3] = tested on: TpPIN1 (TP01_0114) transcripts; experiment: Quantitative PCR of TpPIN transcripts in T.parva-infected cells; assay type: cell-based
Description: (§2) Total cellular RNAs were extracted using an RNeasy Plus Mini Kit (Qiagen, Hilden, Germany) and parasite RNAs were extracted using the classical Trizol Protocol. cDNA synthesis was performed with the Reverse Transcriptase Superscript III (Invitrogen, CA, USA).
(§3) Quantitative PCR amplification was performed in the ABI 7500 machine (Applied Biosystems, CA, USA) using the Sybr Green reagent (Applied Biosystems, CA, USA) using the primers listed in Table 5 below. The detection of a single product was verified by dissociation curve analysis. Relative quantities of mRNA were analyzed using the delta Ct method. The βactin qPCR was used for normalization. Table 5: qPCR primers

HepG2 cells [4] = experiment: Soft agar colony forming assay, HepG2; assay type: cell-based, human; conditions: number of colonies per plate
Description: as §1, with “HepG2, NIH/3T3 and MEF cells lines were cultured in DMEM (Gibco-BRL, Paisley, UK), supplemented with 10% heat-inactivated Fetal calf serum, 4mM L-Glutamine, 25 mM HEPES, 10µM β-mercaptoethanol and 100µg/ml penicillin/streptomycin in a humidified 5% CO2 atmosphere at 37°C.” left out, “The anti-parasite drug Buparvaquone (BW720c) was used at 200ng/ml for 72 hours. BW720c has no effect on growth of uninfected cells.” left out
A two-layer soft agar culture system was used. […] Cultures were incubated in humidified 37°C incubators with an atmosphere of 5%CO2 in air, and control plates were monitored for growth using a microscope. At the time of maximum colony formation (10 days in culture), final colony numbers were counted manually after fixation a staining with 0.005% Crystal Violet (Sigma, Ref.: C3886).

TaPIN transcripts = experiment: Quantitative PCR of TaPIN transcripts in T.annulata-infected cells; assay type: cell-based
Description: as §2, §3

host bovine bPIN1 = experiment: Quantitative PCR of host bPIN1 transcripts; assay type: cell-based
Description: as §2, §3

[5] = tested on: parasite load in infected TBL3 cells; experiment: Western blot analysis of parasite actin (TaActin) in infected TBL3 cells; assay type: cell-based, T.annulata; conditions: 72h treatment
TaPIN Mutant A53P = target: T1, TaPIN Mutant A53P (Theileria annulata, UniProt Q4UG71, A53P); experiment: CyclinD1-Luciferase reporter assay, TaPIN Mutant A53P in TBL3 cells; assay type: cell-based, T. annulata; conditions: parasite-infected cells (TBL3)
T1 construct: expressed in transfected cells; host or cells: TBL3 (T. annulata-infected bovine B cells), electroporated with pRev-HA-FLAG-TaPIN A53P-RIL2
Excerpt: After sequencing the TaPIN gene expressed in Buparvaquone-resistant infected cells, the Ala53Pro point mutation identified in said gene was introduced into the pRev-HA-FLAG-TaPIN WT-RIL2 plasmid using the set of primers of sequence SEQ ID NO:41 and SEQ ID NO:42 following a 3-step PCR protocol.
Bovine cells were transfected with the 5xHRE (Staller et al., 2003) or CyclinD1- (Wulf et al., 2001) Luciferase reporters, using electroporation (Neon kit, Invitrogen, CA, USA). Mouse cells were transfected using Lipofectamine 2000 (Invitrogen, CA, USA). Transfections efficiencies were normalized to Renilla activity by co-transfection of a pRL-TK Renilla reporter plasmid (Promega, Ref.: E6241). Luciferase assays were performed 36h post-transfection using the Dual-Luciferase Reporter Assay System (Promega, Ref: E1980) in a microplate luminometer. Relative luminescence was represented as the ratio Firefly/Renilla luminescence, compared with the corresponding empty vector control. The 5xHRE promoter-Luciferase construct was obtained from P Staller (Biotech Research & Innovation Centre, Copenhagen, […]).

Compound: CC(C)(C)C1CCC(CC2=C(O)C(=O)c3ccccc3C2=O)CC1 (centres unmarked) [Buparvaquone, 2-((4-tert-butylcyclohexyl)methyl)-3-hydroxy-1,4-naphthoquinone]
- viability of HepG2 cells (HepG2 cells [1]): reduce the viability
- drug effect on TBL3 cell proliferation on overexpression of the TaPIN Mutant A53P [2]: rescued
- TpPIN1 transcripts [3]: reduced
- soft agar colony-forming potential of HepG2 cells (HepG2 cells [4]): decreased
- TaPIN transcripts (TaPIN transcripts): lost
- level of RNA transcripts encoding the host bovine bPIN1 protein (host bovine bPIN1): not affected
- parasite load, parasite actin (TaActin) [5]: decreased parasite load
- CyclinD1 promoter activation induced by the TaPIN Mutant A53P (TaPIN Mutant A53P): no significant effect
